Experimental data: patent US20090062253A1, “HETEROCYCLODIAZEPINE CANNABINOID RECEPTOR MODULATORS FOR TREATMENT OF DISEASE” (KALYPSYS, INC., priority 2007, published 2009)

How the values were obtained:
Human CB2 = biological target: T1, Human CB2 (Homo sapiens, UniProt P34972); test: Human CB2 Radioligand Binding Assay; conditions: membranes from stably transfected CHO CB2 cells; competition with [3H] CP-55,940; read-out: CB2 Ligand Binding Asssay
T1 construct: expressed in transfected cells; membrane preparation
T1 sequence (P34972 whole entry): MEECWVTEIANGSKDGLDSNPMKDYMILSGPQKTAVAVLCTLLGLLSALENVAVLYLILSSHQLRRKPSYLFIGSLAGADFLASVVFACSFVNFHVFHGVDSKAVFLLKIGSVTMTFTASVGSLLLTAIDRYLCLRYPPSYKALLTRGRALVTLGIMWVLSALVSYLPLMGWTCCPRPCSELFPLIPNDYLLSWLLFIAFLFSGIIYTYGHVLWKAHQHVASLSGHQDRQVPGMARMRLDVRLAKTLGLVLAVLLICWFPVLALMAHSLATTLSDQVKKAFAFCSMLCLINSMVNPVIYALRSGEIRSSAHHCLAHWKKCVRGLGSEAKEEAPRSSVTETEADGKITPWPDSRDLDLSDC
Procedure: (§1) This receptor binding filtration assay measures the receptor-ligand interactions of compounds by measuring ability to compete with a radiolabeled control ligand. Reactions were performed in 96 deep-well plate (Costar 3961) with a final volume of 600 ul. Compounds were added to each well either in single point (10 uM final) or dose-response. Compounds were delivered in DMSO or further diluted in incubation buffer to a final assay DMSO concentration of 1%. Incubation buffer (50 mM Tris-HCl pH 7.4, 2.5 mM EGTA, 5 mM MgCl2, 5.0 mg/ml fatty acid free BSA) was added to each well. Following buffer addition, [^3H] CP-55,940 was added. Tritiated CP-55,940 (Perkin Elmer) was used at the Kd determined from prior saturation binding experiments conducted on each lot of membranes. Membrane preparations from stably transfected CHO CB2 cells were added and the reaction was incubated for 90 minutes at 30° C. Unifilter GF/C filtration plates (Perkin Elmer) were pre-wet with 0.05% polyethylenimine. Samples were transferred to Unifilter plates and separation of unbound radioligand was achieved using a vacuum manifold (Millipore). Following thorough washing with 5 ml/well ice-cold wash buffer (50 mM Tris-HCl pH 7.4, 2.5 mM EGTA, 5 mM MgCl2, 0.5 mg/ml fatty acid free BSA), filterplates were dried completely. Betaplate Scint Scintillation cocktail (25 ul, Perkin Elmer) was applied and plates were read using Microbeta Trilux (Wallac). Data analysis was performed in Spotfire. Activity of the positive control (100 nM CP-55,940) was set as 100% efficacy.
Stable recombinant Human CB2-CHO cell membranes were prepared as follows: Chinese Hamster Ovarian (CHO) cells stably expressing human cannabinoid receptor type 2 were grown to ˜90% confluence in 15×100 mm culture dishes under puromycin selection (5 ug/ml) Cells were harvested from culture flasks using a cell scraper, were washed once with cold phosphate-buffered saline (calcium and magnesium free) and pelleted by centrifugation at 400 g for 5 min at 4° C. Cell pellet was washed once with cold phosphate-buffered saline and centrifuged again at 400×g for 5 min at 4° C. The pellet was suspended in ice-cold lysis buffer (10 mM Tris-HCl, 0.1 mM EDTA, containing […], pH 7.5) and homogenized in a chilled 7 ml glass dounce homogenizer using 50 strokes. The homogenate was centrifuged at 400 g for 15 min at 4° C. The cloudy supernatant was collected and centrifuged at 41000 g for 30 min at 4° C. The resulting pellet was washed with ice-cold sucrose-free lysis buffer and centrifuged again at 41000 g for 30 min at 4° C. The membrane pellet was suspended in sucrose-free storage buffer (10 mm Tris-HCl, 0.1 mM EDTA, pH 7.5) to a concentration of 2-3 mg protein/ml. Aliquots were flash frozen in liquid nitrogen and stored at −80° C. Concentration was determined using Dc protein assay kit (Bio-Rad).

[1] = biological target: T2, human cannabinoid receptor type 1 (Homo sapiens, UniProt P21554); test: Human CB1 Radioligand Binding Assay (basis of selectivity CB2 vs. CB1)
T2 construct: purchased Perkin Elmer RBHCB1M; host or cells: HEK 293 EBNA cells
T2 sequence (P21554 whole entry): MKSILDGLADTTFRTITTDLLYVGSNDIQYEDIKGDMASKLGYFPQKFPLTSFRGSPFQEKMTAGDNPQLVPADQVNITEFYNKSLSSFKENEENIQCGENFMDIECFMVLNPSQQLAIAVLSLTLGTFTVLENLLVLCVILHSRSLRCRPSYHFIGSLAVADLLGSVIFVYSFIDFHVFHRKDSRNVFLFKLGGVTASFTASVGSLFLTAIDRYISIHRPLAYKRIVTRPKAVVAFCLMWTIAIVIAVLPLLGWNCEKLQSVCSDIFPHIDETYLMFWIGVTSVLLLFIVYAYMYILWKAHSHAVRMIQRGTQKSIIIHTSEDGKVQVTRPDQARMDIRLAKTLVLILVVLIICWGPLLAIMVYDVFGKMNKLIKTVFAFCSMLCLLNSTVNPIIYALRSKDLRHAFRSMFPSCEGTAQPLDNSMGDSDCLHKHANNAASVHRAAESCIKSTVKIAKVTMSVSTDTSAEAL
Procedure: as §1
The CB1 binding assay was performed as described above except that HEK 293 EBNA cells expressing human cannabinoid receptor type 1 (Perkin Elmer cat #RBHCB1M) were used according the manufacturer's instructions. The incubation buffer was composed of 50 mM Tris-HCl pH 7.4, 2.5 mM EDTA, 5 mM MgCl2, 5.0 mg/ml fatty acid free BSA and the wash buffer was composed of 50 mM Tris-HCl pH 7.4, 2.5 mM EDTA, 5 mM MgCl2, 0.5 mg/ml fatty acid free BSA. Activity of the positive control (100 nM CP-55,940) was set as 100% efficacy.

| Structure (SMILES) | IC50 (radioligand displacement) (Human CB2) | Selectivity, CB2 vs. CB1 [1] |
| --- | --- | --- |
| O=C(Nc1ccc(Cl)cc1)[C@H]1CCCn2cccc2[C@@H]1c1ccccc1 (relative stereo) [Example 109, (8,9-trans)-N-(4-Chlorophenyl)-9-phenyl-6,7,8,9-tetrahydro-5H-pyrrolo[1,2-a]azepine-8-carboxamide] | > 1000 nM | − (− indicates < 10-fold) |
| O=C(Nc1ccc(Cl)cc1)[C@H]1CCCn2cccc2[C@H]1c1ccccc1 (relative stereo) [Example 110, (8,9-cis)-N-(4-Chlorophenyl)-9-phenyl-6,7,8,9-tetrahydro-5H-pyrrolo[1,2-a]azepine-8-carboxamide] | < 1000 nM | − (− indicates < 10-fold) |
| O=C(Nc1ccc(C(F)(F)F)cc1)[C@H]1CCCn2cccc2[C@@H]1c1ccccc1 (relative stereo) [Example 111, (8,9-trans)-9-Phenyl-N-(4-(trifluoromethyl)phenyl)-6,7,8,9-tetrahydro-5H-pyrrolo[1,2-a]azepine-8-carboxamide] | > 1000 nM | − (− indicates < 10-fold) |
| O=C(Nc1ccc(OC(F)(F)F)cc1)[C@H]1CCCn2cccc2[C@H]1c1ccccc1 (relative stereo) [Example 114, (8,9-cis)-9-Phenyl-N-(4-(trifluoromethoxy)phenyl)-6,7,8,9-tetrahydro-5H-pyrrolo[1,2-a]azepine-8-carboxamide] | < 1000 nM | − (− indicates < 10-fold) |
| O=C(Nc1ccc(F)cc1F)C1CCCn2cccc2C1c1ccccc1 (single isomer, unassigned) [Example 106, (8,9-cis)-N-(2,4-Difluorophenyl)-9-phenyl-6,7,8,9-tetrahydro-5H-pyrrolo[1,2-a]azepine-8-carboxamide] | < 1000 nM | + (+ indicates > 10-fold) |
| O=C(Nc1ccc(F)c(F)c1)C1CCCn2cccc2C1c1ccccc1 (single isomer, unassigned) [Example 108, (8,9-cis)-N-(3,4-Difluorophenyl)-9-phenyl-6,7,8,9-tetrahydro-5H-pyrrolo[1,2-a]azepine-8-carboxamide] | > 1000 nM | − (− indicates < 10-fold) |
| O=C(Nc1ccc(OC(F)(F)F)cc1)C1CCCn2cccc2C1c1ccccc1 (single isomer, unassigned) [Example 113, (8,9-trans)-9-Phenyl-N-(4-(trifluoromethoxy)phenyl)-6,7,8,9-tetrahydro-5H-pyrrolo[1,2-a]azepine-8-carboxamide] | > 1000 nM | − (− indicates < 10-fold) |
| CC(C)(C)c1ccc(C2c3cccn3CCCC2NC(=O)Nc2ccc(Cl)cc2Cl)cc1 (single isomer, unassigned) [Example 118, 1-(9-(4-tert-Butylphenyl)-6,7,8,9-tetrahydro-5H-pyrrolo[1,2-a]azepin-8-yl)-3-(2,4-dichlorophenyl)urea] | < 1000 nM | − (− indicates < 10-fold) |
| CC(C)(C)c1ccc(C2c3cccn3CCCC2NC(=O)Nc2ccc(Cl)cc2Cl)cc1 (single isomer, unassigned) [Example 119, 1-(9-(4-tert-Butylphenyl)-6,7,8,9-tetrahydro-5H-pyrrolo[1,2-a]azepin-8-yl)-3-(2,4-dichlorophenyl)urea] | > 1000 nM | − (− indicates < 10-fold) |
| CC(C)(C)c1ccc(C2c3cccn3CCCC2NC(=O)Nc2ccc(Cl)c(Cl)c2)cc1 (single isomer, unassigned) [Example 120, 1-(9-(4-tert-Butylphenyl)-6,7,8,9-tetrahydro-5H-pyrrolo[1,2-a]azepin-8-yl)-3-(3,4-dichlorophenyl)urea] | > 1000 nM | − (− indicates < 10-fold) |
| CC(C)(C)c1ccc(C2c3cccn3CCCC2NC(=O)Nc2ccc(Cl)c(Cl)c2)cc1 (single isomer, unassigned) [Example 121, 1-(9-(4-tert-Butylphenyl)-6,7,8,9-tetrahydro-5H-pyrrolo[1,2-a]azepin-8-yl)-3-(3,4-dichlorophenyl)urea] | > 1000 nM | − (− indicates < 10-fold) |
| CC(C)(C)c1ccc(C2NCCn3cccc32)cc1 (centres unmarked) [Example 1, 1-(4-tert-Butylphenyl)-1,2,3,4-tetrahydropyrrolo[1,2-a]pyrazine] | > 1000 nM | − (− indicates < 10-fold) |
| O=C(Nc1ccc(Cl)cc1Cl)N1CCCn2cccc2C1c1ccccc1 (centres unmarked) [Example 13, N-(2,4-Dichlorophenyl)-1-phenyl-4,5-dihydro-1H-pyrrolo[1,2-a][1,4]diazepine-2(3H)-carboxamide] | > 1000 nM | − (− indicates < 10-fold) |

The next lines start with the values.

| IC50 (radioligand displacement) (Human CB2) | Selectivity, CB2 vs. CB1 [1] | Structure (SMILES) |
| --- | --- | --- |
| < 1000 nM | + (+ indicates > 10-fold) | CC(C)(C)c1ccc(C2c3cccn3CCN2C(=O)Nc2ccc(F)cc2F)cc1 (centres unmarked) [Example 2, 1-(4-tert-Butylphenyl)-N-(2,4-difluorophenyl)-3,4-dihydropyrrolo[1,2-a]pyrazine-2(1H)-carboxamide] |
| > 1000 nM | + (+ indicates > 10-fold) | O=C(Nc1ccc(F)cc1F)N1CCn2cccc2C1c1ccccc1 (centres unmarked) [Example 5, N-(2,4-Difluorophenyl)-1-phenyl-3,4-dihydropyrrolo[1,2-a]pyrazine-2(1H)-carboxamide] |
| < 1000 nM | + (+ indicates > 10-fold) | CC(C)(C)c1ccc(C2c3cccn3CCCN2C(=O)Nc2ccc(F)cc2F)cc1 (centres unmarked) [Example 7, 1-(4-tert-Butylphenyl)-N-(2,4-difluorophenyl)-4,5-dihydro-1H-pyrrolo[1,2-a][1,4]diazepine-2(3H)-carboxamide] |
| < 1000 nM | − (− indicates < 10-fold) | Cc1ccc(C2c3cccn3CCCN2C(=O)Nc2ccc(F)cc2F)cc1 (centres unmarked) [Example 8, N-(2,4-Difluorophenyl)-1-p-tolyl-4,5-dihydro-1H-pyrrolo[1,2-a][1,4]diazepine-2(3H)-carboxamide] |
| > 1000 nM | − (− indicates < 10-fold) | Cc1cccc(C2c3cccn3CCCN2C(=O)Nc2ccc(F)cc2F)c1 (centres unmarked) [Example 10, N-(2,4-Difluorophenyl)-1-m-tolyl-4,5-dihydro-1H-pyrrolo[1,2-a][1,4]diazepine-2(3H)-carboxamide] |
| > 1000 nM | − (− indicates < 10-fold) | Cc1cccc(C2c3cccn3CCCN2C(=O)Nc2ccc(Cl)cc2Cl)c1 (centres unmarked) [Example 11, N-(2,4-Dichlorophenyl)-1-m-tolyl-4,5-dihydro-1H-pyrrolo[1,2-a][1,4]diazepine-2(3H)-carboxamide] |
| > 1000 nM | − (− indicates < 10-fold) | O=C(Nc1ccc(F)cc1F)N1CCCn2cccc2C1c1ccccc1 (centres unmarked) [Example 12, N-(2,4-Difluorophenyl)-1-phenyl-4,5-dihydro-1H-pyrrolo[1,2-a][1,4]diazepine-2(3H)-carboxamide] |
| < 1000 nM | + (+ indicates > 10-fold) | CC(C)(C)c1cccc(C2c3cccn3CCCN2C(=O)Nc2ccc(F)cc2F)c1 (centres unmarked) [Example 18, 1-(3-tert-Butylphenyl)-N-(2,4-difluorophenyl)-4,5-dihydro-1H-pyrrolo[1,2-a][1,4]diazepine-2(3H)-carboxamide] |
| > 1000 nM | − (− indicates < 10-fold) | CC(C)(C)c1cccc(C2c3cccn3CCCN2C(=O)Nc2ccc(Cl)cc2Cl)c1 (centres unmarked) [Example 19, 1-(3-tert-Butylphenyl)-N-(2,4-dichlorophenyl)-4,5-dihydro-1H-pyrrolo[1,2-a][1,4]diazepine-2(3H)-carboxamide] |
